Source: US8003655B2, “Substituted sulphoximines as TIE2 inhibitors and salts thereof, pharmaceutical compositions comprising same, methods of preparing same and uses of same” (Bayer Schering Pharma AG, priority 2006, dated 2011)

Assays:
Format in all cases: biochemical
Tie2 = molecular target: T1, Tie2 (Homo sapiens, UniProt Q02763); assay: Tie2-Kinase HTRF-Assay without kinase preactivation (assay 2); conditions: 10 μM ATP, pIC50 = −log IC50 in molar concentration, read-out: Tie 2 activity (assay 2)
T1 construct: A recombinant fusion protein of GST and the intracellular domains of Tie2; GST; made in house; host or cells: insect cells (Hi-5)
T1 sequence (Q02763 770-1124 limits assumed): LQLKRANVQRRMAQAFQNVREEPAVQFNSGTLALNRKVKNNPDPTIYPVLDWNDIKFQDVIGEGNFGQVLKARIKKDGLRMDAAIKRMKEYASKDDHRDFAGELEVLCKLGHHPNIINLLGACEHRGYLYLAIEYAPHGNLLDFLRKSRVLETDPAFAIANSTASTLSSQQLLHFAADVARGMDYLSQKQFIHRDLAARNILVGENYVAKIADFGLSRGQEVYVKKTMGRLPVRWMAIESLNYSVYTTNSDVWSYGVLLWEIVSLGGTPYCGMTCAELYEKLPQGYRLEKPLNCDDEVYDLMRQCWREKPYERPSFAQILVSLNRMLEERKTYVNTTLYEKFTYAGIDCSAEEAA
Source text: Tie2-inhibitory activity of compounds of the present invention was quantified employing two Tie2 HTRF assay as described in the following paragraphs.
A recombinant fusion protein of GST and the intracellular domains of Tie2, expressed in insect cells (Hi-5) and purified by Glutathion-Sepharose affinity chromatography was used as kinase. Alternatively, commercially available GST-Tie2-fusion protein (Upstate Biotechnology, Dundee, Scotland) can be used as substrate for the kinase reaction the biotinylated peptide biotin-Ahx-EPKDDAYPLYSDFG (C-terminus in amid form) was used which can be purchased e.g. from the company Biosynthan GmbH (Berlin-Buch, Germany). Detection of phosphorylated product is achieved specifically by a trimeric detection complex consisting of the phosphorylated substrate, streptavidin-XLent (SA-XLent) which binds to biotin, and Europium Cryptate-labeled anti-phosphotyrosine antibody PT66 which binds to phosphorylated tyrosine.
Tie2 (3.5 ng/measurement point) was incubated for 60 min at 22° C. in the presence of 10 μM adenosine-tri-phosphate (ATP) and 1 μM substrate peptide (biotin-Ahx-EPKDDAYPLYSDFG-NH2) with different concentrations of test compounds (0 μM and concentrations in the range 0.001-20 μM) in 5 μl assay buffer [50 mM Hepes/NaOH pH 7, 10 mM MgCl2, 0.5 mM MnCl2, 1.0 mM dithiothreitol, 0.01% NP40, protease inhibitor mixture (“Complete w/o EDTA” from Roche, 1 tablet per 2.5 ml), 1% (v/v) dimethylsulfoxide]. The reaction was stopped by the addition of 5 μl of an aqueous buffer (25 mM Hepes/NaOH pH 7.5, 0.28% (w/v) bovine serum albumin) containing EDTA (90 mM) and the HTRF (Homogeneous Time Resolved Fluorescence) detection reagents streptavidine-XLent (0.2 μM, from Cis Biointernational, Marcoule, France) and PT66-Eu-Chelate (0.3 ng/μl; a europium-chelate labelled anti-phospho-tyrosine antibody from Perkin Elmer).
(§1) The resulting mixture was incubated 1 h at 22° C. to allow the binding of the biotinylated phosphorylated peptide to the streptavidine-XLent and the PT66-Eu-Chelate. Subsequently the amount of phosphorylated substrate peptide was evaluated by measurement of the resonance energy transfer from the PT66-Eu-Chelate to the streptavidine-XLent. Therefore, the fluorescence emissions at 620 nm and 665 nm after excitation at 350 nm was measured in a HTRF reader, e.g. a Rubystar (BMG Labtechnologies, Offenburg, Germany) or a Viewlux (Perkin-Elmer). The ratio of the emissions at 665 nm and at […] was taken as the measure for the amount of phosphorylated substrate peptide. The data were normalised (enzyme reaction without inhibitor=0% inhibition, all other assay components but no enzyme=100% inhibition) and IC50 values were calculated by a 4 parameter fit using an inhouse software.

preactivated Tie2 = molecular target: T2, preactivated Tie2 (Homo sapiens, UniProt Q02763); assay: Tie2-Kinase HTRF-Assay with kinase preactivation (assay 3); conditions: 10 μM ATP, pIC50 = −log IC50 in molar concentration, read-out: Tie 2 activity (assay 3)
T2 construct: A recombinant fusion protein of GST and the intracellular domains of Tie2; GST; made in house; host or cells: insect cells (Hi-5)
T2 sequence (Q02763 770-1124 limits assumed): as above
Experimental: Assay 3: Tie2-Kinase HTRF-Assay with Kinase Preactivation
A recombinant fusion protein of GST and the intracellular domains of Tie2, expressed in insect cells (Hi-5) and purified by Glutathion-Sepharose affinity chromatography was used as kinase. As substrate for the kinase reaction the biotinylated peptide biotin-Ahx-EPKDDAYPLYSDFG (C-terminus in amid form) was used which can be purchased e.g. from the company Biosynthan GmbH (Berlin-Buch, Germany).
For activation, Tie2 was incubated at a conc. 12.5 ng/μl of for 20 min at 22° C. in the presence of 250 μM adenosine-tri-phosphate (ATP) in assay buffer [50 mM Hepes/NaOH pH 7, 10 mM MgCl2, 0.5 mM MnCl2, 1.0 mM dithiothreitol, 0.01% NP40, protease inhibitor mixture (“Complete w/o EDTA” from Roche, 1 tablet per 2.5 ml)].
For the subsequent kinase reaction, the preactivated Tie2 (0.5 ng/measurement point) was incubated for 20 min at 22° C. in the presence of 10 μM adenosine-tri-phosphate (ATP) and 1 μM substrate peptide (biotin-Ahx-EPKDDAYPLYSDFG-NH2) with different concentrations of test compounds (0 μM and concentrations in the range 0.001-20 μM) in 5 μl assay buffer [50 mM Hepes/NaOH pH 7, 10 mM MgCl2, 0.5 mM MnCl2, 0.1 mM sodium ortho-vanadate, 1.0 mM dithiothreitol, 0.01% NP40, protease inhibitor mixture (“Complete w/o EDTA” from Roche, 1 tablet per 2.5 ml), 1% (v/v) dimethylsulfoxide]. The reaction was stopped by the addition of 5 μl of an aqueous buffer (25 mM Hepes/NaOH pH 7.5, 0.28% (w/v) bovine serum albumin) containing EDTA (90 mM) and the HTRF (Homogeneous Time Resolved Fluorescence) detection reagents streptavidine-XLent (0.2 μM, from Cis Biointernational, Marcoule, France) and PT66-Eu-Chelate (0.3 ng/μl; a europium-chelate labelled anti-phospho-tyrosine antibody from Perkin Elmer).
as §1

CDK2/CycE = molecular target: T3, CDK2/CycE (Homo sapiens, UniProt P24941); assay: CDK2 HTRF Assay (assay 4); conditions: 10 μM ATP, pIC50 = −log IC50 in molar concentration
T3 construct: GST; purchased ProQinase GmbH (Freiburg, Germany); host or cells: insect cells (Sf9)
Source text: CDK2/CycE-inhibitory activity of compounds of the present invention was quantified employing the CDK2/CycE HTRF assay as described in the following paragraphs.
Recombinant fusion proteins of GST and human CDK2 and of GST and human CycE, expressed in insect cells (Sf9) and purified by Glutathion-Sepharose affinity chromatography, were purchase from ProQinase GmbH (Freiburg, Germany). As substrate for the kinase reaction biotinylated peptide biotin-Ttds-YISPLKSPYKISEG (C-terminus in amid form) was used which can be purchased e.g. form the company JERINI peptide technologies (Berlin, Germany).
CDK2/CycE was incubated for 60 min at 22° C. in the presence of different concentrations of test compounds in 5 μl assay buffer [50 mM Tris/HCl pH 8.0, 10 mM MgCl2, 1.0 mM dithiothreitol, 0.1 mM sodium ortho-vanadate, 10 μM adenosine-tri-phosphate (ATP), 0.75 μM substrate, 0.01% (v/v) Nonidet-P40 (Sigma), 1% (v/v) dimethylsulfoxide]. The concentration of CDK2/CycE was adjusted depending of the activity of the enzyme lot and was chosen appropriate to have the assay in the linear range, typical concentrations were in the range of 1 ng/ml. The reaction was stopped by the addition of 5 μl of a solution of HTRF detection reagents (0.2 μM streptavidine-XLent and 3.4 nM Phospho-(Ser) CDKs Substrate Antibody [product #2324B, Cell Signalling Technology, Danvers, Mass., USA} and 4 nM Prot-A-EuK [Protein A labeled with Europium Cryptate from Cis biointernational, France, product no. 61PRAKLB]) in an aqueous EDTA-solution (100 mM EDTA, 800 mM KF, 0.2% (w/v) bovine serum albumin in 100 mM HEPES/NaOH pH 7.0).

Row | SMILES | IC50 (Tie2) | IC50 (preactivated Tie2) | IC50 (CDK2/CycE)
1 | CCOC(=O)N=S(C)(=O)c1cccc(Nc2ncc(-c3ccc(NC(=O)C4(c5ccccc5)CC4)cc3)c(N[C@H](C)CO)n2)c1 (mixture of isomers) [Example 9, N-{4-[2-({3-[(RS)-N-(Ethoxycarbonyl)-S-methylsulfonimidoyl]phenyl}amino)-4-{[(R)-2-hydroxy-1-methylethyl]amino}-pyrimidin-5-yl]phenyl}-1-phenylcyclopropane-carboxamide] | 100 to 1000 nM | 100 to 1000 nM | > 10000 nM
2 | C[C@H](CO)Nc1nc(Nc2cccc(S(C)(=N)=O)c2)ncc1-c1ccc(NC(=O)Nc2cccc(C(F)(F)F)c2)cc1 (mixture of isomers) [Example 39, 1-[4-(4-{[(R)-2-Hydroxy-1-methylethyl]amino}-2-{[3-(RS)-(S-methylsulfonimidoyl)phenyl]amino}-pyrimidin-5-yl)phenyl]-3-[3-(trifluoromethyl)-phenyl]urea] | < 100 nM |  | > 10000 nM
3 | C[C@H](CO)Nc1nc(Nc2ccc(S(C)(=N)=O)cc2)ncc1-c1ccc(NS(=O)(=O)c2cccc(Cl)c2Cl)cc1 (mixture of isomers) [Example 24] | 100 to 1000 nM |  | > 10000 nM
4 | CCOC(=O)N=S(C)(=O)c1cccc(Nc2ncc(-c3ccc(NC(=O)Nc4cc(C(F)(F)F)ccc4F)c(F)c3)c(SC)n2)c1 (racemic) [Example 17, 1-{4-[2-({3-[(RS)-N-(Ethoxycarbonyl)-S-methylsulfonimidoyl]phenyl}amino)-4-(methylsulfanyl)pyrimidin-5-yl]-2-fluorophenyl}-3-[2-fluoro-5-(trifluoromethyl)phenyl]urea] | < 100 nM |  | > 10000 nM
5 | CCOC(=O)N=S(C)(=O)c1cccc(Nc2ncc(-c3ccc(NC(=O)Nc4cc(C(F)(F)F)ccc4F)c(F)c3)c(NCCN3CCOCC3)n2)c1 (racemic) [Example 29, 1-{4-[2-({3-[(RS)-N-(Ethoxycarbonyl)-S-methylsulfonimidoyl]phenyl}amino)-4-{[2-(morpholin-4-yl)ethyl]amino}pyri-midin-5-yl]-2-fluorophenyl}-3-[2-fluoro-5-(trifluoromethyl)-phenyl]urea] | < 100 nM |  | > 10000 nM
6 | CSc1nc(Nc2cccc(S(C)(=N)=O)c2)ncc1-c1ccc(NC(=O)Nc2cc(C(F)(F)F)ccc2F)c(F)c1 (racemic) [Example 44, 1-{2-Fluoro-4-[2-{[3-(RS)-(S-methylsulfonimidoyl)phenyl]amino}-4-(methylthio)-pyrimidin-5-yl]phenyl}-3-[2-fluoro-5-(trifluoromethyl)-phenyl]urea] | < 100 nM |  | > 10000 nM
7 | CC(C)NC(=O)N=S(C)(=O)c1cccc(Nc2ncc(-c3ccc(NC(=O)Nc4cccc(C(F)(F)F)c4)cc3)c(N[C@H](C)CO)n2)c1 (mixture of isomers) [Example 14, 1-{4-[4-{[(R)-2-hydroxy-1-methylethyl]amino}-2-({3-[(RS)-N-(isopropylcarbamoyl) -S-methylsulfonimidoyl]phenyl}amino)-pyrimidin-5-yl]phenyl}-3-[3-(trifluoromethyl)-phenyl]urea] | 100 to 1000 nM |  | > 10000 nM
8 | CCOC(=O)N=S(C)(=O)c1ccc(Nc2ncc(-c3ccc(NC(=O)C4(c5ccccc5)CC4)cc3)c(N[C@H](C)CO)n2)cc1 (mixture of isomers) [Example 1, N-{4-[2-({4-[(RS)-N-(Ethoxycarbonyl)-S-methylsulfonimidoyl]phenyl}amino)-4-{[(R)-2-hydroxy-1-methylethyl]amino}-pyrimidin-5-yl]phenyl}-1-phenylcyclopropanecarboxamide] | 100 to 1000 nM |  | > 10000 nM
9 | CS(=N)(=O)c1cccc(Nc2ncc(-c3ccc(NC(=O)Nc4cc(C(F)(F)F)ccc4F)c(F)c3)c(NCCc3ccccc3)n2)c1 (racemic) [Example 48, 1-[2-Fluoro-4-(2-{[3-(RS)-(S-methylsulfonimidoyl)phenyl]amino}-4-[(2-phenylethyl)amino]-pyrimidin-5-yl)phenyl]-3-[2-fluoro-5-(trifluoromethyl)-phenyl]urea] | 100 to 1000 nM |  | > 10000 nM
10 | CCOC(=O)N=S(C)(=O)c1ccc(Nc2ncc(-c3ccc(NC(=O)Nc4ccccc4)cc3)c(N[C@H](C)CO)n2)cc1 (mixture of isomers) [Example 6, 1-{4-[2-({4-[(RS)-N-(Ethoxycarbonyl)-S-methylsulfonimidoyl]phenyl}amino)-4-{[(R)-2-hydroxy-1-methylethyl]amino}-pyrimidin-5-yl]-phenyl}-3-[phenyl]urea] | 100 to 1000 nM |  | > 10000 nM
11 | CCOC(=O)N=S(C)(=O)c1cccc(Nc2ncc(-c3ccc(NC(=O)Nc4cccc(C(F)(F)F)c4)cc3)c(N[C@H](C)CO)n2)c1 (mixture of isomers) [Example 10, 1-{4-[2-({3-[(RS)-N-(Ethoxycarbonyl)-S-methylsulfonimidoyl]phenyl}amino)-4-{[(R)-2-hydroxy-1-methylethyl]amino}-pyrimidin-5-yl]-phenyl}-3-[3-(trifluoromethyl)-phenyl]urea] | 100 to 1000 nM |  | > 10000 nM
